In ChEMBL document CHEMBL1147512, “Development of subtype-selective ligands as antagonists at nicotinic receptors mediating nicotine-evoked dopamine release” (Bioorg Med Chem Lett, 2004):
pIC50, pKi: −log10 of the molar value.

Assays:
[1] = target: T1, Neuronal acetylcholine receptor; alpha4/beta2 (Rattus norvegicus, UniProt P09483+P12390); assay: Inhibition of [3H]nicotine binding to Nicotinic acetylcholine receptor alpha4-beta2 in rat brain; format: tissue-based
[2] = target: T1, Neuronal acetylcholine receptor; alpha4/beta2; assay: Inhibitory activity against nAChR mediated nicotine-evoked [3H]DA overflow using rat striatal slices; format: functional
[3] = target: T2, Neuronal acetylcholine receptor subunit alpha-7 (Rattus norvegicus, UniProt Q05941); assay: Inhibition of [3H]-MLA binding to Nicotinic acetylcholine receptor alpha-7 in rat brain.; format: tissue-based
T2 sequence (Q05941 whole entry): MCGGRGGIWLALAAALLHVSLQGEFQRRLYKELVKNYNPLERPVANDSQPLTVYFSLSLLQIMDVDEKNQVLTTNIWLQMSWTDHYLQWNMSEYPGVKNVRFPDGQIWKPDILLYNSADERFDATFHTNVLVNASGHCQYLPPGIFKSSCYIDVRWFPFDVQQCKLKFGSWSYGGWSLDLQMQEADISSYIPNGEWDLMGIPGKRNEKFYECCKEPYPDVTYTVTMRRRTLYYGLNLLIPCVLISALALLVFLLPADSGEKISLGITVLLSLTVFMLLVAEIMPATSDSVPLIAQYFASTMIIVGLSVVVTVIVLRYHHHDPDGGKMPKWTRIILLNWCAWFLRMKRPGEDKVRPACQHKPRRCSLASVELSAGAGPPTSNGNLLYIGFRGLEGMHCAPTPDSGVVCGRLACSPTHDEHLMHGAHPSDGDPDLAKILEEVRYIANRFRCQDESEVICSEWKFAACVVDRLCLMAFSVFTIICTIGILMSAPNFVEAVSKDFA

[4] = target: T1, Neuronal acetylcholine receptor; alpha4/beta2; assay: Inhibition of [3H]nicotine binding to Nicotinic acetylcholine receptor alpha4-beta2 in rat brain.; format: tissue-based
[5] = target: T2, Neuronal acetylcholine receptor subunit alpha-7; assay: Inhibition of [3H]-MLA binding to Nicotinic acetylcholine receptor alpha7 in rat brain; format: tissue-based
Rattus norvegicus = species on record: Rattus norvegicus; assay: Inhibitory activity against nAChR mediated nicotine-evoked [3H]DA overflow using rat striatal slices; Not active; format: functional, organism-based

T1 sequence (P09483 whole entry): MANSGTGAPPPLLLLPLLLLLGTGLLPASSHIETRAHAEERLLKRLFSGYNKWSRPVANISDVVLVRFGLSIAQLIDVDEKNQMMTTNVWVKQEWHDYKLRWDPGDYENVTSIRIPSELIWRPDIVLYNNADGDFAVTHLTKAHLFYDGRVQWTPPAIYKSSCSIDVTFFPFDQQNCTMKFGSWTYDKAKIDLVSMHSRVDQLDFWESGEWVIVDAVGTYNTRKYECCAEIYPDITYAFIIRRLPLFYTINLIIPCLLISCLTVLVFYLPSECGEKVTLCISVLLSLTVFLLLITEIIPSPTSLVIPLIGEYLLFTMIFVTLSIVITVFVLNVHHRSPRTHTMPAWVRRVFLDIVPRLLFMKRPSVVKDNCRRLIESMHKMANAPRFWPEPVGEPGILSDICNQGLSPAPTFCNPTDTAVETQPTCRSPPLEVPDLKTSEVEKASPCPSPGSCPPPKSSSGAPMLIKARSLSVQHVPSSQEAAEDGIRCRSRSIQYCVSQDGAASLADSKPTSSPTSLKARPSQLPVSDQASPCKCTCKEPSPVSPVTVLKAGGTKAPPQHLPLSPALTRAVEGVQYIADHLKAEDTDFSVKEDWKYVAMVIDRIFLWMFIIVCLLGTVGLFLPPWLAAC
T1 sequence (P12390 whole entry): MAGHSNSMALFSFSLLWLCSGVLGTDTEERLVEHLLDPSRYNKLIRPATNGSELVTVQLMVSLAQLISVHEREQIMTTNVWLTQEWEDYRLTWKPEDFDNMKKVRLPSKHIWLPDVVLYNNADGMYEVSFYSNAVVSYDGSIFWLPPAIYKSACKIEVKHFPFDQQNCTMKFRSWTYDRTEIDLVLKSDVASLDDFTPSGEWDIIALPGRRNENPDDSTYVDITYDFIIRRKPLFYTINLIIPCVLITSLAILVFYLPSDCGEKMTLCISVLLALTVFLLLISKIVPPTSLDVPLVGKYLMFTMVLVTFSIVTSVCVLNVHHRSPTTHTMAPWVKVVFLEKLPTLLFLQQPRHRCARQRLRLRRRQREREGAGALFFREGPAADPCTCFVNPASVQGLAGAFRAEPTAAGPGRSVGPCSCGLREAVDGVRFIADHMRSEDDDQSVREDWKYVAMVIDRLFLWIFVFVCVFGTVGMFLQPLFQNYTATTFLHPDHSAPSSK

| SMILES | pKi [1] | pIC50 [2] | Ki [3] | Ki [4] | pKi [5] | IC50 (Rattus norvegicus) |
| --- | --- | --- | --- | --- | --- | --- |
| CCCCCCCCCC[n+]1ccccc1.[I-] | 4.77 | 6.89 | Not Active |  |  |  |
| CCCCCCCCCC[n+]1ccc2c(c1)[C@H]1[C@@H](CC2)CCN1C.[I-] |  | 6.24 | Not Active | Not Active |  |  |
| CCCCCCCCCCCC[n+]1cccc([C@@H]2CCCN2C)c1.[I-] | 6.85 | 8.05 | Not Active |  |  |  |
| CCCCCCCCCCC[n+]1ccc2c(c1)[C@H]1[C@@H](CC2)CCN1C.[I-] |  | 7.40 | Not Active | Not Active |  |  |
| CCCCCCCC[n+]1cccc([C@@H]2CCCN2C)c1 |  |  |  |  | 4.92 |  |
| CN1CCC[C@H]1c1ccc[n+](CCCCCCCCCCCCCC[n+]2cccc([C@@H]3CCCN3C)c2)c1.[Br-].[Br-] | 5.71 | 6.77 | Not Active |  |  |  |
| CCCCCCCC[n+]1ccc2c(c1)[C@H]1[C@@H](CC2)CCN1C.[I-] |  | 7.10 | Not Active | Not Active |  |  |
| CCCCCCCCCC[n+]1cccc2c1CC[C@@H]1CCN(C)[C@H]21.[I-] |  | 7.52 | Not Active | Not Active |  |  |
| CCCCCCCCCCC[n+]1cccc2c1CC[C@@H]1CCN(C)[C@H]21.[I-] |  | 7.40 | Not Active | Not Active |  |  |
| CCCCCCCCCCCCCCCCCCCC[n+]1ccccc1.[Br-] |  | 6.92 | Not Active | Not Active |  |  |
| CCCCCCCCCCCC[n+]1ccc2c(c1)[C@H]1[C@@H](CC2)CCN1C.[I-] |  | 6.66 | Not Active | Not Active |  |  |
| CCCCCCCCCCCC[n+]1ccccc1.[I-] |  | 6.59 | Not Active | Not Active |  |  |
| CCCCCCCCC[n+]1ccc2c(c1)[C@H]1[C@@H](CC2)CCN1C.[I-] |  | 6.18 | Not Active | Not Active |  |  |
| CCCCCCCCCCCCCCC[n+]1ccccc1.[Br-] | 4.42 | 6.49 | Not Active |  |  |  |
| CCCCCCCCC[n+]1cccc2c1CC[C@@H]1CCN(C)[C@H]21.[I-] |  | 6.51 | Not Active | Not Active |  |  |
| CCCCCCCCCC[n+]1cccc([C@@H]2CCCN2C)c1.[I-] | 7.05 |  | Not Active |  |  | Not Active |
| CCCCCCCC[n+]1cccc2c1CC[C@@H]1CCN(C)[C@H]21.[I-] |  | 7.40 | Not Active | Not Active |  |  |
| c1cc[n+](CCCCCCCCCCCCCC[n+]2ccccc2)cc1 | 5.04 | 6.00 |  |  | 4.48 |  |
| CCCCCCCCCCCC[n+]1cccc2c1CC[C@@H]1CCN(C)[C@H]21.[I-] |  |  | Not Active | Not Active |  | Not Active |
